Assay type in all cases: cell-based
One experiment deals with IL6. Description: IL-1β stimulated IL6 inhibition assay in PBMC. The note with it: human PBMCs, IL-1β stimulation, compound overnight, IL6 by MSD after 24 hrs; for IC50: read-out: IL1β stim IL6 inhibition IC50; for Emax: read-out: IL1β stim IL6 inhibition Ymax. Here is the method: (§1) IL-1β, LPS, or R848 Stimulated IL6 Inhibition and IL-1β Stimulated IL8 Inhibition Assay
(§2) Human PBMC cells were seeded at 2.0×10^6 cells/mL, treated with compound overnight, and dosed with the EC50 concentration of each stimulant (either IL-1B. LPS, or R848) was determined for each donor. After 24 hrs, media was collected and analyzed by MSD for IL6 and/or IL8 levels.

The next experiment concerns IL8. In words: IL-1β stimulated IL8 inhibition assay in PBMC. To be noted: human PBMCs, IL-1β stimulation, compound overnight, IL8 by MSD after 24 hrs; for IC50: read-out: IL1β stim IL8 inhibition IC50; for Emax: read-out: IL1β stim IL8 inhibition Ymax. Here is the method: as §1, §2
In experiment [1] the target is T1, IRAK-4 (Homo sapiens, UniProt Q9NWZ3).
T1 sequence (Q9NWZ3 1-460): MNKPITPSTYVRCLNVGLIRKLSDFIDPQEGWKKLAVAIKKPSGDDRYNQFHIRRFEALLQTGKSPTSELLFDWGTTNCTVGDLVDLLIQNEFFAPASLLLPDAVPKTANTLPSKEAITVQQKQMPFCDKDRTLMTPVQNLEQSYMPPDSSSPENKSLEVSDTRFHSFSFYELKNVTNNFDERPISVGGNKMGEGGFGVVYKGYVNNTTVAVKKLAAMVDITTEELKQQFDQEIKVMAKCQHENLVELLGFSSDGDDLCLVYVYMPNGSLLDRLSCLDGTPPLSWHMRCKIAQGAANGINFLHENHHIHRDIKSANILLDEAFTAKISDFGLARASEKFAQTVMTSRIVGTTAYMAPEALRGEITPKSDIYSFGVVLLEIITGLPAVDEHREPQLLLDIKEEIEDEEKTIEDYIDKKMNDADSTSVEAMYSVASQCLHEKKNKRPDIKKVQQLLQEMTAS
Description: IRAK-4 ELISA, OCI-Ly10 degradation. Also noted: endogenous in cells. The note with it: treated overnight; for Dmax: OCI-Ly10, OCI-Ly10 cells. The essentials:
(§3)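 Overnight compound treatment, started on the day of plating, of OCI-Ly10 (1×10^6/ml) and PBMC (2×10^6/ml) cultures. Lysates are collected and IRAK-4 content is read by sandwich ELISA.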
Background: In an ELISA, binding on a coated surface is turned into a signal by an enzyme label.

Experiment [2] has as its target T1, IRAK-4. Description: IRAK-4 ELISA, PBMC degradation. Also noted: endogenous in cells; host or cells: PBMC. To be noted: treated overnight. The essentials:
as §3

SMILES strings stand for the structures. Read-outs that look alike come from different tables or passages of the source. Where only a bound is given, the exact number is not on record here.

Take `COc1cc2nn(C3CCN(CC4CN(c5ccc6c(c5)CN(C5CCC(=O)NC5=O)C6=O)C4)CC3)cc2cc1NC(=O)c1cnn2cccnc12` (stereo not drawn) [Example 142]: the IC50 in the experiment on IL6 (Homo sapiens, PBMC, 24 h) was less than 10 nM; in the experiment with IL8, 10 to 50 nM. The Emax with IL6 (PBMC) is not below 90%; with IL8, less than 70%. Also, the values for the Dmax at IRAK-4 [1] and at IRAK-4 [2] were 70 to 80% and 80 to 90%, respectively. The DC50 on IRAK-4 [1] (OCI-Ly10 cells) was less than 10 nM; on IRAK-4 [2], less than 1 nM. Besides, on IRAK-4 [2], the “PBMC DC90” value is recorded as “A (A represents a DC90 value <10.0 nM)”.

Turning to `O=C1CCC(N2Cc3cc(N4CC(CN5CCC(n6cc7cc(NC(=O)c8cnn9cccnc89)c(OCC8CC8)cc7n6)CC5)C4)ccc3C2=O)C(=O)N1` (stereo not drawn) [Example 134], the IC50 in the experiment with IL6 (Homo sapiens, PBMC, 24 h) is less than 10 nM; in the experiment on IL8 it was 10 to 50 nM. The Emax is not below 90% in the experiment with IL6 (PBMC) and 70 to 80% with IL8. Further, the Dmax on IRAK-4 [1] and at IRAK-4 [2] was not below 90% in each case. For the same molecule, the DC50 on IRAK-4 [1] (OCI-Ly10 cells) is less than 10 nM; at IRAK-4 [2], less than 1 nM. Moreover, at IRAK-4 [2], the “PBMC DC90” value is reported as “A (A represents a DC90 value <10.0 nM)”.

As to `COc1cc2nn(C3CCN(CC4(F)CN(c5ccc6c(c5)C(=O)N(C5CCC(=O)NC5=O)C6=O)C4)CC3)cc2cc1NC(=O)c1cnn2cccnc12` (stereo not drawn) [Example 207], the IC50 in the experiment with IL6 (Homo sapiens, PBMC, 24 h) lay within 10 to 50 nM; with IL8 it was 50 to 100 nM. Moreover, the figures for the Emax with IL6 (PBMC) and in the experiment with IL8 were not below 90% and less than 70%, respectively. In addition, the Dmax at IRAK-4 [1] and at IRAK-4 [2] was not below 90% each time. In addition, the half-maximal degradation concentration (DC50) on IRAK-4 [1] (OCI-Ly10 cells) was less than 10 nM; at IRAK-4 [2], 1 to 5 nM. Further, the “PBMC DC90” value on IRAK-4 [2] is “B (B represents a DC90 value ≥10.0 nM and <25.0 nM)”.

For `CC(C)Oc1cc2c(cc1NC(=O)c1cnn3cccnc13)CN(C1CCN(CC3CN(c4ccc5c(c4)CN(C4CCC(=O)NC4=O)C5=O)C3)CC1)C2=O` (stereo not drawn) [Example 4], the IC50 with IL6 (Homo sapiens, PBMC, 24 h) is less than 10 nM; in the experiment with IL8, 10 to 50 nM. Also, the Emax in the experiment with IL6 (PBMC) is not below 90%; in the experiment with IL8, 80 to 90%. The Dmax at IRAK-4 [1] and at IRAK-4 [2] was not below 90% each time. Further, the figures for the DC50 at IRAK-4 [1] (OCI-Ly10 cells) and at IRAK-4 [2] were less than 10 nM and less than 1 nM, respectively. In addition, at IRAK-4 [2], the “PBMC DC90” value stood at 4 nM.

For the molecule `O=C1CCC(N2C(=O)c3ccc(N4CC(CN5CCC(N6Cc7cc(NC(=O)c8cnn9cccnc89)c(OCC8CC8)cc7C6=O)CC5)C4)cc3C2=O)C(=O)N1` (stereo not drawn) [Example 86], the IC50 with IL6 (Homo sapiens, PBMC, 24 h) was less than 10 nM; in the experiment on IL8, 10 to 50 nM. The values for the Emax in the experiment on IL6 (PBMC) and with IL8 were not below 90% and 70 to 80%, respectively. Besides, the Dmax at IRAK-4 [1] and on IRAK-4 [2] was not below 90% throughout. Also, the DC50 on IRAK-4 [1] (OCI-Ly10 cells) is less than 10 nM; on IRAK-4 [2], 1 to 5 nM. Besides, the “PBMC DC90” value on IRAK-4 [2] is “B (B represents a DC90 value ≥10.0 nM and <25.0 nM)”.

`O=C1CCC(N2C(=O)c3ccc(N4CCC(CN5CCC(N6Cc7cc(NC(=O)c8cnn9cccnc89)c(N8CCOCC8)cc7C6=O)CC5)CC4)cc3C2=O)C(=O)N1` (stereo not drawn) [Example 32]: in the experiment with IL6, the “IL1β stim IL6 inhibition Ymax” value is reported as “A (A represents a Ymax value ≥90)” and the IC50 lay within 10 to 50 nM. In the experiment with IL8, the IC50 is not below 100 nM and the Emax is not below 90%. Besides, at IRAK-4 [1] (OCI-Ly10 cells), the DC50 was less than 10 nM and the “OCI-LY10 Dmax” value is given as “D (D represents a Dmax value <70)”. Moreover, on IRAK-4 [2], the DC50 was in the range of 1 to 5 nM; the “PBMC DC90” value is “C (C represents a DC90 value ≥25.0 nM and <50 nM)”; the “PBMC Dmax” value is “C (C represents a Dmax value ≥70 and <80)”.

As to `CN(C1CN(c2ccc3c(c2)CN(C2CCC(=O)NC2=O)C3=O)C1)[C@H]1CC[C@H](n2cc3cc(NC(=O)c4cnn5cccnc45)c(OCC4CC4)cc3n2)CC1` (stereo partly drawn) [Example 339], the IC50 is less than 10 nM with IL6 (Homo sapiens, PBMC, 24 h) and 10 to 50 nM in the experiment on IL8. The Emax is not below 90% in the experiment on IL6 (PBMC) and 70 to 80% in the experiment with IL8. Besides, the Dmax at IRAK-4 [1] and at IRAK-4 [2] was not below 90% in each case. In addition, the DC50 on IRAK-4 [1] (OCI-Ly10 cells) is less than 10 nM; at IRAK-4 [2], less than 1 nM. Besides, the “PBMC DC90” value at IRAK-4 [2] is reported as “A (A represents a DC90 value <10.0 nM)”.

Broadly, the IC50 is the concentration at which inhibition is half-maximal. One may read the Dmax as the largest share of the target that was removed. Lower therefore signals a partial loss of target. Usually DC50 stands for the concentration giving 50% degradation.

Values taken from patent US20230099344A1, “COMPOUNDS AND METHODS FOR THE TARGETED DEGRADATION OF IRAK-4” (Arvinas Operations, Inc., priority 2021, published 2023).
